In publication PMC11811597, “Phenomics‐Based Discovery of Novel Orthosteric Choline Kinase Inhibitors” (Angewandte Chemie (International Ed. in English), 2025):
Entries after “also recorded” stand apart in the source; their conditions may differ. Read-outs that look alike come from different tables or passages of the source.

Tests used:
CHKA = CHKA (Homo sapiens, UniProt P35790); assay: Competitive affinity-based chemoproteomics (UNC0965 matrix), MCF7 lysate; assay type: binding; design: endogenous in cells; host or cells: MCF7 whole cell lysate; details: 20 μM competitor; for FC vs DMSO (log2 competition), CHKA: MCF7 lysate, n=2; for competition for CHKA binding to affinity matrix: MCF7 lysates
Description: A-366 and UNC0638 were purchased from Tocris. ARIAD and V-11-07-11 were purchased from Wuxi Apptec. UNC0737 and UNC0965 were synthesised as previously described.[1] Hemicholinium-3 and pyruvate kinase/lactic dehydrogenase enzymes were purchased from Sigma Aldrich. Aqueous and organic solvents were MS-grade and acquired by Sigma Aldrich unless stated otherwise.
MDA-MB-231, MCF7 and HEK293 cells were cultured in DMEM (Gibco, #11965092) supplemented with 10% FBS. K562 were cultured in IMDM (Gibco, #12440053) supplemented with 10% FBS. HepG2 were cultured in MEM (Gibco, #11095080) supplemented with 10 % FBS. […]
cultured in McCoy’s 5A (Sigma, M8403) supplemented with 10 % FBS and 1x GlutaMAX (Gibco, #35050061). Cells were maintained at 37 °C in a humidified 5% CO2 atmosphere. Peripheral blood mononuclear cells (PBMC) were isolated from healthy blood donors by density centrifugation. […]
Chemical Proteomics Drug Pulldown
For lysate generation MCF7 cells were grown until approximately 80% confluency before being pelleted and washed with PBS. Cell pellets were subsequently lysed by addition of Buffer A (50 mM Tris pH 7.5, 0. 8% v/v NP-40, 5% v/v glycerol, 1.5 mM MgCl2, 100 mM NaCl, 25 mM NaF, 1 mM Na3VO4, 1 mM PMSF, 1 mM DTT, 10 μg mL−1 TLCK, 1 μg mL−1 Leupeptin, 1 μg mL−1 Aprotinin, 1 μg mL−1 soy bean trypsin) as previously described.[2]
For each pulldown condition, UNC0965 was coupled to 100 μL of UltraLink Immobilized Streptavidin Plus bead slurry (50% in isopropanol, GE Healthcare) to generate the affinity matrix as previously […]
described.[2] Lysates were precleared with bead slurry (100 μL) for 30 min at 4 °C and then treated with UNC0638 or UNC0737 (20 μM) or DMSO control for 30 min at 4 °C followed by incubation with affinity matrix for 2 h at 4 °C. Affinity matrices were washed with buffer A (5 mL) and proteins eluted with 100 μL of 2x Laemmli sample buffer, 100 mM DTT, in PBS and heating for 10 min at 90 °C.
Eluents (70 µL) were diluted in 0.1 M Tris (pH 7.8) to 200 µL, reduced with 5 mM DTT for 30 min at RT, and alkylated with 20 mM iodoacetamide for 30 min at RT in the dark. […]
Digested samples were analysed by nano-UPLC–MS/MS using a Dionex Ultimate 3000 nano UPLC fitted with an EASY spray column (75 μm × 500 mm, 2 μm particle size, Thermo Scientific), coupled to an Orbitrap Q Exactive instrument. […]
Raw data was processed using MaxQuant[3] version 2.0.1.0 and the reference complete human proteome FASTA file (UniProt, downloaded 05.08.21). Label Free Quantification (LFQ) and Match Between Runs were selected; Cysteine carbamidomethylation was selected as a fixed modification, and methionine oxidation and asparagine deamidation as variable modifications. Default settings for identification and quantification were used. […]

[1] = tested on: choline metabolism in MCF7 cells; assay: NMR choline metabolite analysis; assay type: cell-based, human; details: for extracellular choline uptake: dose-dependent
Description: NMR Choline Metabolite Analysis
Sample preparation for the quantification of metabolites by nuclear magnetic resonance (NMR) spectroscopy was performed as described previously.[13] Briefly, 0.3 mL of cell culture medium (conditioned medium) was collected from each sample and mixed with 2 volumes of pre-chilled methanol (< -70 °C), vortexed for 30 s and placed on dry ice for at least 30 min. Following centrifugation for 20 min at 18100 × g and 0 °C, the supernatant extract of culture medium was dried and stored until NMR analysis. The remaining culture medium from each sample was discarded and cells were washed once with PBS (37 °C), and quenched with liquid nitrogen. Polar metabolites were extracted with 1.4 mL of an ice-cold solution of 67.5:7.5:25 (v/v/v) of methanol/chloroform/water.
Samples were centrifuged at 18100 × g for 15 min at 0 °C and the supernatant consisted of intracellular polar metabolites was collected and dried under nitrogen gas stream. The remaining cell pellets were used for protein mass quantification using the Pierce™ BCA Protein Assay Kit (Thermo Scientific™).
Samples from both cell culture medium and cell extracts were reconstituted in 220 µL of 50 mM phosphate buffer (pH 7.4) solution in deuterated water containing 0.05 mM trimethylsilyl propionic-d4-sodium salt (TSP-d4, Cambridge Isotope Laboratories, Inc.) as internal standard used for NMR referencing and quantification. One NMR experiment (pulse sequence: noesygppr1d; Bruker Biospin) was collected for each sample in a 14.1 T (600 MHz for 1H) Bruker Avance Neo NMR. All recorded NMR spectra were imported in Chenomx NMR suite 9.0 (Chenomx NMR suite, v9.0) for the quantification of choline, phosphocholine sn-glycero-phosphocholine (GPC) and betaine. Quantitative data (nmoles or μM) were then normalized to the amount of total protein mass (mg) of each sample. […]

Chain of CHKA (P35790 whole entry): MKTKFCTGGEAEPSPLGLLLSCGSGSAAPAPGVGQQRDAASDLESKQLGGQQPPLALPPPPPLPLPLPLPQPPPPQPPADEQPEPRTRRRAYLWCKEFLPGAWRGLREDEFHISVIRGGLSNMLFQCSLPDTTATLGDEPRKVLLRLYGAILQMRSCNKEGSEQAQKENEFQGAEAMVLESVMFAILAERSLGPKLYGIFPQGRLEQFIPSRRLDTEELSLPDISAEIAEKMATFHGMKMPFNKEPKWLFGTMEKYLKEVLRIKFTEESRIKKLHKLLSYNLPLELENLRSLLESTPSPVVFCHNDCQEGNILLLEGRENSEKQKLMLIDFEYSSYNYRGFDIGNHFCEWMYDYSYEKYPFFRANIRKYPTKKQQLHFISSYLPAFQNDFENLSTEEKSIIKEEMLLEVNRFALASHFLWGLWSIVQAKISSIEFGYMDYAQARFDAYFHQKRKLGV

COc1cc2c(NC3CCN(C(C)C)CC3)nc(C3CCCCC3)nc2cc1OCCCN1CCCC1 [UNC0638]
FC vs DMSO (log2 competition), CHKA (CHKA): -2.284 | competition for CHKA binding to affinity matrix (CHKA): shared off‐target | betaine [1]: did not observe changes | intracellular choline levels [1]: not significantly affected | phosphocholine (pCho) formation/levels relative to control [1]: reduction of pCho formation; also recorded: significantly reduced | sn‐glycerophosphocholine (GPC) [1]: not significantly affected | extracellular choline uptake [1]: decrease in extracellular choline uptake

COc1cc2c(N(C)C3CCN(C(C)C)CC3)nc(C3CCCCC3)nc2cc1OCCCN1CCCC1 [UNC0737]
FC vs DMSO (log2 competition), CHKA (CHKA): -4.09 | competition for CHKA binding to affinity matrix (CHKA): shared off‐target; also recorded: even stronger competition | betaine [1]: did not observe changes | intracellular choline levels [1]: not significantly affected | phosphocholine (pCho) formation/levels relative to control [1]: reduction of pCho formation | sn‐glycerophosphocholine (GPC) [1]: not significantly affected | extracellular choline uptake [1]: decrease in extracellular choline uptake | phosphocholine (pCho) formation/levels relative to control ([1]; listed as UN0737): significantly reduced
